This assay concerns the target RIPK1 (recombinant GST-RIPK1 kinase domain, residues 1-327) (Homo sapiens (Human), UniProt Q13546). Nature of the assay: RIPK1-ADP-Glo Enzymatic Assay. The assay is classed as biochemical. The settings on record: ADP-Glo; 25 nM GST-RIPK1, 300 μM ATP; assay lower limit ~25 nM; read-out: RIPK1 V0 Ec50. The procedure, abridged: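 GST-tagged kinase domain (residues 1-327, Sf21-expressed), 25 nM, pre-incubated 30 min with compound at ambient temperature, then reacted 150 min with 300 μM ATP and 3 μM dephosphorylated MBP in HEPES pH 7.3 buffer. ADP measured by ADP-Glo luminescence; EC50 from ten-point titration (top 100000 nM), four-parameter fit.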
For orientation: ADP-Glo turns the ADP formed in a reaction into a luminescent signal.

The term EC50 denotes the concentration giving half of the maximal effect.

Where a name gives a salt, the structure may show the parent alone. A value given as a limit tells only on which side of the number the result lay.

Chain of RIPK1 (recombinant GST-RIPK1 kinase domain, residues 1-327) (Q13546 1-327): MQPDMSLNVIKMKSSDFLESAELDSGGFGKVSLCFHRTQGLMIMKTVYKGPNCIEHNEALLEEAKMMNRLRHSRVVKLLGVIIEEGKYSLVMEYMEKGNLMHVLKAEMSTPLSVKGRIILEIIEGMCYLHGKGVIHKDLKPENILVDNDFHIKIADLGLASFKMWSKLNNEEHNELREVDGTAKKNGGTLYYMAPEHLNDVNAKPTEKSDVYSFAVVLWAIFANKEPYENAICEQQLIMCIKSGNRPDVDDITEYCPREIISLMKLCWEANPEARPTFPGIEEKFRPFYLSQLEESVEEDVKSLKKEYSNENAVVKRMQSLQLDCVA

In the case of `N#Cc1ccc(C(=O)N2CCC3(CC2)O[C@@H]2CC[C@@H](c4cc(F)cc(F)c4)N2C3=O)c(Cl)c1` [Example 5.22, 3-chloro-4-((5′S,7a′R)-5′-(3,5-difluorophenyl)-3′-oxotetrahydro-3′H-spiro [piperidine-4,2′-pyrrolo-[2,1-b]oxazole]-1-carbon-yl)benzonitrile], the EC50 amounted to 392 nM.

Regarding `O=C(c1cccc(-c2nnco2)c1)N1CCC2(CC1)O[C@@H]1CC[C@@H](c3cc(F)cc(F)c3)N1C2=O` [Example 6.64, (5′S,7a′R)-5′-(3,5-difluorophenyl)-1-[3-(1,3,4-oxadiazol-2-yl)benzene-1-carbon-yl]tetrahydro-3′H-spiro[piperidine-4,2′-pyrrolo[2,1-b][1,3]-oxazol]-3′-one], the EC50 was less than 25 nM.

For `O=C(c1nc(C2CC2)no1)N1CCC2(CC1)O[C@@H]1CC[C@@H](c3cc(F)cc(F)c3)N1C2=O` [Example 6.35], the EC50 stood at 89.7 nM.

Turning to `N#Cc1cccc(C(=O)N2CCC3(CC2)O[C@@H]2CC[C@@H](c4cc(F)cc(F)c4)N2C3=O)c1F` [Example 6.33, 3-[(5′S,7a′R)-5′-(3,5-difluorophenyl)-3′-oxotetrahydro-1H,3′H-spiro[piperidine-4,2′-pyrrolo[2,1-b][1,3]oxazole]-1-carbonyl]-2-fluorobenzonitrile], the EC50 worked out at 40.2 nM.

For `O=C1N2[C@@H](CC[C@H]2c2ccccc2)OC12CCN(c1ncc(Br)c3ncnn13)CC2` [Example 4.239, (5′S,7a′R)-1-(8-bromo [1,2,4]triazolo[1,5-c]pyrimidin-5-yl)-5′-phenyltetrahydro-3′H-spiro[piperidine-4,2′-pyrrolo[2,1-b] [1,3]oxazol]-3′-one], the EC50 is less than 25 nM.

With `O=C1N2[C@@H](CC[C@H]2c2cc(F)cc(F)c2)OC12CCN(c1ncc(F)c3nncn13)CC2` [Example 13.13, (5′S,7a′R)-5′-(3,5-difluorophenyl)-1-(8-fluoro-[1,2,4]triazolo[4,3-c]pyrimidin-5-yl)tetrahydro-3′H-spiro[piperidine-4,2′-pyrrolo[2,1-b]oxazol]-3′-one, TFA salt], the EC50 was found to be 366 nM.

As to `O=C1N2[C@@H](CC[C@H]2c2ccccc2)OC12CCN(c1ncnc3ccnn13)CC2` [Example 4.93, (5′S,7a′R)-5′-phenyl-1-(pyrazolo[1,5-a] [1,3,5]triazin-4-yl)tetrahydro-3′H-spiro[piperidine-4,2′-pyrrolo[2,1-b]oxazol]-3′-one, TFA salt], the EC50 is less than 25 nM.

Consider `O=C(c1c(Cl)nc2ccccn12)N1CCC2(CC1)O[C@@H]1CC[C@@H](c3cc(F)cc(F)c3)N1C2=O` [Example 6.31, (5′S,7a′R)-1-(2-chloroimidazo[1,2-a]pyridine-3-carbonyl)-5′-(3,5-difluorophen-yl)tetrahydro-3′H-spiro[piperidine-4,2′-pyrrolo[2,1-b][1,3]oxazol]-3′-one], for which the EC50 worked out at 36.5 nM.

As to `O=C(c1ccnnc1)N1CCC2(CC1)O[C@@H]1CC[C@@H](c3cc(F)cc(F)c3)N1C2=O` [Example 6.99, (5′S,7a′R)-5′-(3,5-difluorophenyl)-1-(pyridazine-4-carbon-yl)tetrahydro-3′H-spiro[piperidine-4,2′-pyrrolo[2,1-b][1,3]-oxazol]-3′-one], the EC50 turned out to be 146 nM.

Turning to `NC(=O)c1ccc(N2CCC3(CC2)O[C@@H]2CC[C@@H](c4cccc(F)c4)N2C3=O)n2ncnc12` [Example 4.152, 5-[(5′S,7a′R)-5′-(3-fluorophenyl)-3′-oxotetrahydro-1H,3′H-spiro[piperidine-4,2′-pyrrolo[2,1-b] [1,3]oxazol]-1-yl][1,2,4]triazolo[1,5-a] pyridine-8-carboxamide], the EC50 was less than 25 nM.

With `O=C(c1cc(F)ccc1F)N1CCC2(CC1)O[C@@H]1CC[C@@H](c3cccc(F)c3)N1C2=O` [Example 1.6, (5′S,7a′R)-1-(2,5-difluorobenzene-1-carbonyl)-5′-(3-fluorophenyl)tetrahydro-3′H-spiro[piperidine-4,2′-pyrrolo[2,1-b] [1,3]oxazol]-3′-one], the EC50 was less than 25 nM.

(Values after patent US12180226B2, “Spirotricycle RIPK1 inhibitors and methods of uses thereof” (Merck Sharp & Dohme LLC, priority 2021, dated 2024).)
